Data reported in BindingDB's records for doi:10.7270/Q21V5CDC (Burnham Center For Chemical Genomics, 2010).
Several values for one entry are separate records, joined by “and”; a condition that tells them apart may be missing. Equal entries are not always repeated.

What follows are compounds tested against T1, Amyloid-beta A4 precursor protein-binding family A member 1 (Rattus norvegicus, UniProt O35430) (assay: disruptors of Mint-PDZ/N-type channel peptide interaction – biochemical, HTRF, SAR follow-up (AID 2489)).
T1 sequence (O35430 whole entry): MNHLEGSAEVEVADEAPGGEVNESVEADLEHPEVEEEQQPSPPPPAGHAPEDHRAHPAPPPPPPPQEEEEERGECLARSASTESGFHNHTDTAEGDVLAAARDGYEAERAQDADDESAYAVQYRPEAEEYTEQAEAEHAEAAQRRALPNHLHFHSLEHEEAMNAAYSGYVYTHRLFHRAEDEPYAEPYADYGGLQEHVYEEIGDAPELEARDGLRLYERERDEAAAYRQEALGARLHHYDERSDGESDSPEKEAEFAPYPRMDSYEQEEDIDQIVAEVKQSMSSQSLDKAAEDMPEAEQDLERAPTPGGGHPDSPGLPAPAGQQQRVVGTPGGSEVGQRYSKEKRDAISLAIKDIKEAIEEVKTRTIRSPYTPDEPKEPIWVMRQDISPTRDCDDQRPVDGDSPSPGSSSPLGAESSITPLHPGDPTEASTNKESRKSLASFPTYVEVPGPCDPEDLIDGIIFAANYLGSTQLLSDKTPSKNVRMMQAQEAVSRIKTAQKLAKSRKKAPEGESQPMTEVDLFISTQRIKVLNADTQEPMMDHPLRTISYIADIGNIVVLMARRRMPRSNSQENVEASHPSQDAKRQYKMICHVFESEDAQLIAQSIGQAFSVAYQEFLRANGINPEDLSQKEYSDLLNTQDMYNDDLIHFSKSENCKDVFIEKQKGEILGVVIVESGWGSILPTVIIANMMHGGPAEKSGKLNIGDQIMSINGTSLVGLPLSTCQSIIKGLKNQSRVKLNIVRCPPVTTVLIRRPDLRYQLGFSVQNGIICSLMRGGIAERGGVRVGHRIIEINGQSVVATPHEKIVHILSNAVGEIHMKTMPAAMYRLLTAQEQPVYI

First: CCCCc1ccc(CC2=C(C(=O)OCC)C(=O)c3ccccc3C2=O)cc1
Second: CCCc1ccc(CC2=C(C(=O)OCC)C(=O)c3ccccc3C2=O)cc1 [MLS000571357]
The IC50 of the first is 2.3-fold higher: 16.2 µM for the first, 7.19 µM for the second.

Compared with `CC12C=CC(C)(O1)c1c2c(O)n(-c2ccc3c(c2)OCO3)c1O`, `Cc1cccc(-n2c(O)c3c(c2O)C2(C)C=CC3(C)O2)c1` [4,7-dimethyl-2-(3-methylphenyl)-3a,7a-dihydro-octahydro-1H-4,7-epoxyisoindole-1,3-dione] is lower in IC50: over 56.8 µM for the first, 27.6 µM for the second.

Going from `CC12C=CC(C)(O1)c1c2c(O)n(-c2ccc(Cl)cc2)c1O` to `Cc1ccc(-n2c(O)c3c(c2O)C2(C)C=CC3(C)O2)cc1`, the IC50 falls from over 56.8 µM to 11.5 µM. The second is the more potent here.

`CC12C=CC(C)(O1)c1c2c(O)n(-c2ccc(F)cc2)c1O` [2-(4-fluorophenyl)-4,7-dimethyl-3a,7a-dihydro-octahydro-1H-4,7-epoxyisoindole-1,3-dione] and `CC(=O)Oc1ccc(-n2c(O)c3c(c2O)C2(C)C=CC3(C)O2)cc1` [MLS000107813] are within 1.5-fold of each other in IC50: 10.7 µM for the first, 7.82 µM for the second.

Compared with `CC12C=CC(C)(O1)c1c2c(O)n(-c2ccccc2)c1O` [4,7-dimethyl-2-phenyl-3a,7a-dihydro-octahydro-1H-4,7-epoxyisoindole-1,3-dione], `COC(=O)c1cc(-n2c(O)c3c(c2O)C2(C)C=CC3(C)O2)ccc1Cl` [MLS000107828] is higher in IC50: 11.7 µM for the first, over 56.8 µM for the second.

For `CC(=O)Oc1ccc(-n2c(O)c3c(c2O)C2C=CC3O2)cc1` [[4-(1,3-dioxo-3a,4,7,7a-tetrahydro-octahydro-1H-4,7-epoxyisoindol-2-yl)phenyl] acetate], the IC50 was over 56.8 µM.

For `CC(=O)Oc1cccc(-n2c(O)c3c(c2O)C2(C)C=CC3(C)O2)c1`, the IC50 was 12 µM and 18.3 µM.
